In assay [1] the target is Rabbit Reticulocyte Lysate. Description: Rabbit Reticulocyte Lysate: inhibition of eukaryotic protein synthesis (luciferase). Format: biochemical. Conditions: 30° C. 90 minutes, read-out: Retic. IC50. A digest of the protocol: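 Nuclease-treated rabbit reticulocyte lysate translating luciferase control RNA with complete amino acids; compounds in 8-point 2-fold dilutions, 90 min at 30° C. Luminescence read after luciferase reagent; % inhibition versus water (no-inhibitor) control, no-RNA wells as background.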

The subject of the next assay is E. faecalis (Ef). In words: Broth microdilution MIC, E. faecalis. Format: cell-based. Conditions: Enterococcus faecalis, read-out: Ef + bicarb 25 (MIC). A digest of the protocol:
(§1)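 CLSI broth microdilution (M07-A9, slightly modified): two-fold serial dilutions in CAMHB, CAMHB plus 25 mM sodium bicarbonate, or CAMHB with 0-50% heat-inactivated human serum, 8 dilutions in triplicate. Inoculum 5×10^4 CFU/well from 0.5 McFarland cultures grown at 35±2° C.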

In a further assay the test system is P. aeruginosa (Pa). Description: Broth microdilution MIC, P. aeruginosa. Format: cell-based. Conditions: Pseudomonas aeruginosa, read-out: Pa + bicarb 25 (MIC). The gist of the method:
as §1

Another assay concerns E. coli (Ec). Description: Broth microdilution MIC, E. coli. Format: cell-based. Conditions: Escherichia coli, read-out: E. coli + bicarb 25 (MIC). The gist of the method: as §1
In general terms: In broth dilution the organism is exposed to a series of concentrations in liquid medium.

A further assay concerns A. baumannii (Ab). Description: Broth microdilution MIC, A. baumannii. Format: cell-based. Conditions: for MIC: Acinetobacter baumannii, read-out: Ab + bicarb 25 (MIC). The gist of the method: as §1
The next assay deals with E. coli S30 extract. Description: E. coli S30 extract: inhibition of bacterial protein synthesis (luciferase). Format: biochemical. The settings on record: 37° C. 1 hour. A digest of the protocol: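 Coupled transcription-translation in E. coli S30 extract, programmed with pBESTluc plasmid, was run with 8-point 2-fold compound dilutions for 1 h at 37 °C. After a cold stop, luciferase luminescence was read and percent inhibition calculated against no-inhibitor controls.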

The next assay deals with S. aureus (Sa). In words: Broth microdilution MIC, S. aureus. Format: cell-based. The settings on record: Staphylococcus aureus, read-out: Sa + bicarb 25 (MIC). The gist of the method:
as §1

[2] abbreviates: E. faecalis, CAMHB supplemented with sodium bicarbonate 25 mM.
Setting [3] is: P. aeruginosa, CAMHB supplemented with sodium bicarbonate 25 mM.
[4] abbreviates: E. coli, CAMHB supplemented with sodium bicarbonate 25 mM.
Where [5] appears, read: S. aureus, CAMHB supplemented with sodium bicarbonate 25 mM.

This note sets out measurements from patent publication US20250084041A1, “ANTIMICROBIAL COMPOUNDS AND METHODS” (Curza Global, LLC, priority 2021, published 2025).

Where a name gives a salt, the structure may show the parent alone. Read-outs that look alike come from different tables or passages of the source.

For orientation: IC50 means the concentration that gives 50% inhibition. One may read the MIC as the least concentration at which growth counts as inhibited. For `CC(C)(N)C(=O)N1CCN(C(=O)Nc2ccn(C3=CCC(CN[C@H]4CC[C@H](N)C4)CC3)c(=O)n2)CC1` (stereo partly drawn) [Compound 3, 4-(2-Amino-2-methylpropanoyl)-N-(1-(4-((((1S,3S)-3-aminocyclopentyl)amino)methyl)cyclohex-1-en-1-yl)-2-oxo-1,2-dihydropyrimidin-4-yl)piperazine-1-carboxamide hydrochloride salt], the IC50 is at least 1 µM in assay [1] and below 0.5 µM in the assay with E. coli S30 extract. For the same compound, the MIC with E. faecalis (Ef) is above 32 µg/mL; in the assay with P. aeruginosa (Pa), above 32 µg/mL; with E. coli (Ec), below 8 µg/mL; in the assay on A. baumannii (Ab) it was above 32 µg/mL; in the assay on S. aureus (Sa) it was below 8 µg/mL.
With `CC(C)(N)C(=O)N1CCN(C(=O)Nc2ccn(C3CCC(CN4C[C@@H]5[C@@H](N)[C@@H]5C4)CC3)c(=O)n2)CC1` (stereo partly drawn) [Compound 6, 4-(2-Amino-2-methylpropanoyl)-N-(1-(cis-4-((exo-6-amino-3-azabicyclo[3.1.0]hexan-3-yl)methyl)cyclohexyl)-2-oxo-1,2-dihydropyrimidin-4-yl)piperazine-1-carboxamide hydrochloride salt], the IC50 (in assay [1]; with E. coli S30 extract (hydrochloride salt)) was at least 1 µM each time. Also, the MIC with E. faecalis (Ef) (setting [2]) is 8 to 32 µg/mL; in the assay with P. aeruginosa (Pa) (setting [3]), above 32 µg/mL; in the assay with E. coli (Ec) (setting [4]), below 8 µg/mL; with S. aureus (Sa) (setting [5]), below 8 µg/mL. Further, in the assay with A. baumannii (Ab) (A. baumannii, CAMHB supplemented with sodium bicarbonate 25 mM, hydrochloride salt), the “Ab + bicarb 25 (MIC)” value is recorded as “+ (An MIC value (μg/mL) that is 32 μg/mL or greater)”.
In the case of `CC(C)(N)C(=O)N1CCN(C(=O)Nc2ccn(C3=CCC(CN4CCCC(N)CC4)CC3)c(=O)n2)CC1` (single isomer, unassigned) [Compound 41, 4-(2-Amino-2-methylpropanoyl)-N-(1-(4-((4-aminoazepan-1-yl)methyl)cyclohex-1-en-1-yl)-2-oxo-1,2-dihydropyrimidin-4-yl)piperazine-1-carboxamide hydrochloride salt], the IC50 in assay [1] is at least 1 µM; in the assay with E. coli S30 extract, below 0.5 µM. For the same compound, the MIC is below 8 µg/mL in the assay on E. faecalis (Ef); above 32 µg/mL with P. aeruginosa (Pa); below 8 µg/mL in the assay with E. coli (Ec); above 32 µg/mL in the assay with A. baumannii (Ab); below 8 µg/mL in the assay with S. aureus (Sa).
As for `CC(C)(N)C(=O)N1CCN(C(=O)Nc2ccn(C3=CCC(CN4CCCC(N)CC4)CC3)c(=O)n2)CC1` (stereo not shown) [Compound 4, 4-(2-Amino-2-methylpropanoyl)-N-(1-(4-((4-aminoazepan-1-yl)methyl)cyclohex-1-en-1-yl)-2-oxo-1,2-dihydropyrimidin-4-yl)piperazine-1-carboxamide hydrochloride salt], the IC50 is at least 1 µM in assay [1] and below 0.5 µM in the assay on E. coli S30 extract. Further, the minimal inhibitory concentration (MIC) is below 8 µg/mL with E. faecalis (Ef); above 32 µg/mL in the assay on P. aeruginosa (Pa); below 8 µg/mL in the assay with E. coli (Ec); above 32 µg/mL in the assay on A. baumannii (Ab); below 8 µg/mL with S. aureus (Sa).
Consider `CCN(C[C@H]1CC[C@H](n2ccc(N)nc2=O)CC1)[C@H]1CC[C@H](N)CC1` [Compound 54, 4-amino-1-((trans)-4-((((trans)-4-aminocyclohexyl)(ethyl)amino)methyl)cyclohexyl)pyrimidin-2(1H)-one], for which the 50% inhibitory concentration (IC50) (in assay [1]; with E. coli S30 extract) was at least 1 µM each time. Besides, the MIC in the assay on E. faecalis (Ef) (setting [2]) was above 32 µg/mL; in the assay on P. aeruginosa (Pa) (setting [3]), above 32 µg/mL; in the assay with E. coli (Ec) (setting [4]) it was above 32 µg/mL; with A. baumannii (Ab) (A. baumannii, CAMHB supplemented with sodium bicarbonate 25 mM), above 32 µg/mL; in the assay with S. aureus (Sa) (setting [5]) it was above 32 µg/mL.
`CC(C)(N)C(=O)N1CCN(C(=O)Nc2ccn(C3CCC(CN4CC(CN)C4)CC3)c(=O)n2)CC1` (stereo not shown) [Compound 14, 4-(2-Amino-2-methylpropanoyl)-N-(1-(4-((3-(aminomethyl)azetidin-1-yl)methyl)cyclohexyl)-2-oxo-1,2-dihydropyrimidin-4-yl)piperazine-1-carboxamide hydrochloride salt]: the IC50 in assay [1] is at least 1 µM; in the assay on E. coli S30 extract it was below 0.5 µM. In addition, the MIC was 8 to 32 µg/mL with E. faecalis (Ef); above 32 µg/mL in the assay with P. aeruginosa (Pa); below 8 µg/mL in the assay on E. coli (Ec); above 32 µg/mL in the assay with A. baumannii (Ab); below 8 µg/mL in the assay on S. aureus (Sa).
As for `CC(C)(N)C(=O)N1CCN(C(=O)Nc2ccn([C@H]3CC[C@H](CN[C@H]4CC[C@@H](N)CC4)CC3)c(=O)n2)CC1` [Compound 17, 4-(2-Amino-2-methylpropanoyl)-N-(1-(trans-4-(((cis-4-aminocyclohexyl)amino)methyl)cyclohexyl)-2-oxo-1,2-dihydropyrimidin-4-yl)piperazine-1-carboxamide hydrochloride salt], the results for the IC50 (in assay [1]; in the assay on E. coli S30 extract) were at least 1 µM and below 0.5 µM, respectively. The MIC in the assay with E. faecalis (Ef) was below 8 µg/mL; in the assay with P. aeruginosa (Pa), above 32 µg/mL; in the assay on E. coli (Ec) it was below 8 µg/mL; in the assay on A. baumannii (Ab) it was above 32 µg/mL; in the assay with S. aureus (Sa), below 8 µg/mL.
